Results reported in article PMC10205801 (2023).

What was measured:
[1] = tested on: A16U + U38G (Wobble Beetroot) (RNA, aptamer) GCGCCGGUUAGGCAGUGGUGGGUGGUGUGGAGGAGUAGCUGUCCGGCGC; experiment: fluorescence titration; conditions: 150 mM K+, 5 mM Mg2+; 20 mM MOPS-KOH pH 7.0; RNA titrated into dye
[2] = tested on: F30-wild-type Beetroot / Wobble Beetroot heterodimer (RNA, aptamer) GGAGCCAUGUGUAUGUGGUCCGCGCCGGUUAGGCAGAGGUGGGUGGUGUGGAGGAGUAUCUGUCCGGCGCGGACCACAUACUCUGAUGAUCCUUCGGGAUCAUUCAUGGCUCC/GCGCCGGUUAGGCAGUGGUGGGUGGUGUGGAGGAGUAGCUGUCCGGCGC; experiment: fluorescence emission spectrum; conditions: 150 mM K+, 5 mM Mg2+; 20 mM MOPS-KOH pH 7
[3] = tested on: Beetroot (RNA, aptamer) GCGCCGGUUAGGCAGAGGUGGGUGGUGUGGAGGAGUAUCUGUCCGGCGC; experiment: fluorescence titration; conditions: 150 mM K+, 5 mM Mg2+; 20 mM MOPS-KOH pH 7.0; RNA titrated into dye
[4] = tested on: F30_Beetroot (RNA, aptamer) GGAGCCAUGUGUAUGUGGUCCGCGCCGGUUAGGCAGAGGUGGGUGGUGUGGAGGAGUAUCUGUCCGGCGCGGACCACAUACUCUGAUGAUCCUUCGGGAUCAUUCAUGGCUCC; experiment: fluorescence emission spectrum; conditions: 150 mM K+, 5 mM Mg2+; 20 mM MOPS-KOH pH 7
[5] = tested on: Beetroot (RNA, aptamer) GCGCCGGUUAGGCAGAGGUGGGUGGUGUGGAGGAGUAUCUGUCCGGCGC; experiment: ITC; conditions: 150 mM K+, 5 mM Mg2+; 20 mM MOPS-KOH pH 7.0, 25 °C (methods; text gives 21 °C); two equivalent sites per dimer; per site
[6] = tested on: A16C + U38G (RNA, aptamer) GCGCCGGUUAGGCAGCGGUGGGUGGUGUGGAGGAGUAGCUGUCCGGCGC; experiment: fluorescence activation; conditions: 150 mM K+, 5 mM Mg2+; 20 mM MOPS-KOH pH 7.0; considerably less fluorescent than wild-type
[7] = tested on: A16U + U38A (RNA, aptamer) GCGCCGGUUAGGCAGUGGUGGGUGGUGUGGAGGAGUAACUGUCCGGCGC; experiment: fluorescence activation; conditions: 150 mM K+, 5 mM Mg2+; 20 mM MOPS-KOH pH 7.0; considerably less fluorescent than wild-type
[8] = tested on: J1/2 deletion (RNA, aptamer) GCGCCGGGCAGAGGUGGGUGGUGUGGAGGAGUAUCUGUCCGGCGC; experiment: fluorescence activation; conditions: 150 mM K+, 5 mM Mg2+; 20 mM MOPS-KOH pH 7.0; fluorescence comparable to wild-type
[9] = tested on: A31U (RNA, aptamer) GCGCCGGUUAGGCAGAGGUGGGUGGUGUGGUGGAGUAUCUGUCCGGCGC; experiment: fluorescence activation; conditions: 150 mM K+, 5 mM Mg2+; 20 mM MOPS-KOH pH 7.0; fluorescence reduced at least 50% relative to wild-type
[10] = tested on: A31C (RNA, aptamer) GCGCCGGUUAGGCAGAGGUGGGUGGUGUGGCGGAGUAUCUGUCCGGCGC; experiment: fluorescence activation; conditions: 150 mM K+, 5 mM Mg2+; 20 mM MOPS-KOH pH 7.0; fluorescence reduced at least 50% relative to wild-type
[11] = tested on: Beetroot (RNA, aptamer) GCGCCGGUUAGGCAGAGGUGGGUGGUGUGGAGGAGUAUCUGUCCGGCGC; experiment: co-crystal structure, 2.1 Å; fluorescence activation; conditions: K+

Kd [1] | binding [2] | Kd [3] | binding [4] | Kd [5] | binding [6] | binding [7] | binding [8] | binding [9] | binding [10] | binding [11] | Compound
7.6 ± 0.8 µM | yes | 9.3 ± 1.5 µM | – | – | – | – | – | – | – | – | CN1C(=O)/C(=C/c2cc(F)c(O)c(F)c2)N=C1/C=N/O
4.9 ± 1.2 µM | yes | 1.55 µM | yes | 0.47 ± 0.18 µM | yes | yes | yes | yes | yes | – | COC(=O)/C=C/C1=NC(=C\c2cc(F)c(O)c(F)c2)/C(=O)N1C
– | – | – | – | – | – | – | – | – | – | yes | Cc1ccc2c(c1)sc(-c1ccc(N(C)C)cc1)[n+]2C
